Measurements reported in US10093683B2, “Factor XIa inhibitors” (Merck Sharp & Dohme Corp., priority 2014, dated 2018).

Experiments:
[1] = target: human Factor XIa (Homo sapiens (Human), UniProt P03951); assay: Factor XIa Assay; assay type: biochemical; conditions: purified human Factor XIa 40 pM, Z-Gly-Pro-Arg-AFC 100 μM, pH 7.4; read-out: FXIa Ki
In short: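 Ki derived from the dependence of Vo/Vi on inhibitor concentration under a competitive-inhibition model, after pre-equilibration of enzyme and inhibitor. Reaction: 40 pM human FXIa, 100 μM Z-Gly-Pro-Arg-AFC, HEPES 50 mM pH 7.4 with NaCl, CaCl2 and PEG 8000; run at room temperature or 37° C.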

[2] = target: Human plasma kallikrein (Homo sapiens (Human), UniProt P03952); assay: Kallikrein Assay; assay type: biochemical; conditions: purified Human plasma kallikrein 0.5 nM, Acetyl-K-P-R-AFC, pH 7.4; Ki from IC50 by Cheng Prusoff
Procedure: The effectiveness of a compound of the present invention as an inhibitor of Kallikrein can be determined using a relevant purified serine protease, and an appropriate synthetic substrate. The rate of hydrolysis of the chromogenic or fluorogenic substrate by the relevant serine protease was measured both in the absence and presence of compounds of the present invention. Assays were conducted at room temperature or at 37° C. […] A decrease in the rate of fluorescence change in the presence of inhibitor is indicative of enzyme inhibition. Such methods are known to one skilled in the art. The results of this assay are expressed as the inhibitory constant, Ki.
Kallikrein determinations were made in 50 mM HEPES buffer at pH 7.4 containing 150 mM NaCl, 5 mM CaCl2, and 0.1% PEG 8000 (polyethylene glycol; Fisher Scientific). Determinations were made using purified Human plasma kallikrein at a final concentration of 0.5 nM (Enzyme Research Laboratories) and the synthetic substrate, Acetyl-K-P-R-AFC (Sigma #C6608) at a concentration of […].
Times required to achieve equilibration between enzyme and inhibitor were determined in control experiments. The reactions were performed under linear progress curve conditions and fluorescence increase measured at 405 Ex/510 Em nm. […] IC50 was determined by inflection point from a four parameter logistic curve fit. Ki was calculated using the Cheng Prusoff equation, Ki=IC50/(1+([S]/Km)).

human Factor XIa, sequence (P03951 388-625): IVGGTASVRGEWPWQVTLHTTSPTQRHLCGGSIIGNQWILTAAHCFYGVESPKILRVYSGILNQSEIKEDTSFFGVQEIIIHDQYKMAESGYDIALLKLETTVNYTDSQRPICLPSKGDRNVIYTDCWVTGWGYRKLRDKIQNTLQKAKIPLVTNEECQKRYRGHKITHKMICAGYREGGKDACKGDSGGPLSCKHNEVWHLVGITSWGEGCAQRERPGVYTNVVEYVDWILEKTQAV
human Factor XIa, sequence (P03951 19-387 partner): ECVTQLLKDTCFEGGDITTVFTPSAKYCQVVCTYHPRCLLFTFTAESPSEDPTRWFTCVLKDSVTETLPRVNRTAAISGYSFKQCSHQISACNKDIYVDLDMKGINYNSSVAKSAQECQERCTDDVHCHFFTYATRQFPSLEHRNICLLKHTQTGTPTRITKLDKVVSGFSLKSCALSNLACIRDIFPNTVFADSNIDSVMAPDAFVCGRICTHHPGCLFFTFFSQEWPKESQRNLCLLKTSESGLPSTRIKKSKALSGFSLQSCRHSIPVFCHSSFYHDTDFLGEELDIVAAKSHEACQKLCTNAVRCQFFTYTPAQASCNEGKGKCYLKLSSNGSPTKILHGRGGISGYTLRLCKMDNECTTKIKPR
Human plasma kallikrein, sequence (P03952 391-638): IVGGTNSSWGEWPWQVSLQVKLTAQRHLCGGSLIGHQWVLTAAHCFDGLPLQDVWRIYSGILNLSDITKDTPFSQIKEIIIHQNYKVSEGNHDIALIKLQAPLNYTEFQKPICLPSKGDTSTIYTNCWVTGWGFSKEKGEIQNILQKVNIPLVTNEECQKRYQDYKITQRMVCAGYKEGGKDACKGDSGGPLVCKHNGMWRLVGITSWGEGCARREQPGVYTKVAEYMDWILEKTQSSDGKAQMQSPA
Human plasma kallikrein, sequence (P03952 20-390 partner): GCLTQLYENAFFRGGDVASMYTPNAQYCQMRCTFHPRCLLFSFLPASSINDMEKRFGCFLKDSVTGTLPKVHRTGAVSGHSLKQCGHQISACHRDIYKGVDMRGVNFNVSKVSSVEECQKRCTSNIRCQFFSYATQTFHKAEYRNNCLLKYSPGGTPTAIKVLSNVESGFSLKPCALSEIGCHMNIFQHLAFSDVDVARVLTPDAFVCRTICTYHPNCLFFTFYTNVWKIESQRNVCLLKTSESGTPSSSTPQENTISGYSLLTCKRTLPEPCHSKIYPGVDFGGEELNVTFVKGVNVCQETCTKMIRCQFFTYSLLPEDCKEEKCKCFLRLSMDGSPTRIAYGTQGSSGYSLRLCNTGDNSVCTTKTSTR

Row | SMILES | Ki [1] [nM] | Ki [2] [nM]
1 | COC(=O)Nc1ccc(C(=O)N[C@@H](CCc2ccccc2)C(=O)N2CCC3(C2)OC(=O)Nc2ccc(Cl)cc23)cc1 (stereo partly drawn) [Example 52, methyl (4-(((2S)-1-(6-chloro-2-oxo-1,2-dihydrospiro[benzo[d][1,3]oxazine-4,3′-pyrrolidin]-1′-yl)-1-oxo-4-phenylbutan-2-yl)carbamoyl)phenyl)carbamate] | 17.6 | 92.8
2 | COC(=O)Nc1ccc(C(=O)N[C@@H](CC2CC2)C(=O)N2CC[C@@]3(C2)OC(=O)Nc2ccc(Cl)c(F)c23)cc1 [Example 61, methyl (4-(((S)-1-((R)-6-chloro-5-fluoro-2-oxo-1,2-dihydrospiro[benzo[d][1,3]oxazine-4,3′-pyrrolidin]-1′-yl)-3-cyclopropyl-1-oxopropan-2-yl)carbamoyl)phenyl)carbamate] | 12.7 | 11.2
3 | COC(=O)Nc1ccc(C(=O)N[C@@H](Cc2ccncc2)C(=O)N2CCC[C@@]3(C2)OC(=O)Nc2ccc(Cl)c(F)c23)cc1 [Example 62, methyl (4-(((S)-1-((R)-6-chloro-5-fluoro-2-oxo-1,2-dihydrospiro[benzo[d][1,3]oxazine-4,3′-piperidin]-1′-yl)-1-oxo-3-(pyridin-4-yl)propan-2-yl)carbamoyl)phenyl)carbamate] | 0.88 | 0.54
4 | COC(=O)Nc1ccc(C(=O)N[C@@H](CC2CC2)C(=O)N2CCC[C@@]3(C2)OC(=O)Nc2ccc(Cl)c(F)c23)cc1 [Example 63, methyl (4-(((S)-1-((R)-6-chloro-5-fluoro-2-oxo-1,2-dihydrospiro[benzo[d][1,3]oxazine-4,3′-piperidin]-1′-yl)-3-cyclopropyl-1-oxopropan-2-yl)carbamoyl)phenyl)carbamate] | 5.64 | 1.73
5 | COC(=O)Nc1ccc(C(=O)N[C@@H](CC2CCOCC2)C(=O)N2CCC[C@@]3(C2)OC(=O)Nc2ccc(Cl)cc23)cc1 [Example 65, methyl (4-(((S)-1-((R)-6-chloro-2-oxo-1,2-dihydrospiro[benzo[d][1,3]oxazine-4,3′-piperidin]-1′-yl)-1-oxo-3-(tetrahydro-2H-pyran-4-yl)propan-2-yl)carbamoyl)phenyl)carbamate] | 41.5 | 5.4
6 | COC(=O)Nc1ccc(C(=O)N[C@@H](CC2CC2)C(=O)N2CCC[C@@]3(C2)OC(=O)Nc2ccc(C)cc23)cc1 [Example 66, methyl (4-(((S)-3-cyclopropyl-1-((R)-6-methyl-2-oxo-1,2-dihydrospiro[benzo[d][1,3]oxazine-4,3′-piperidin]-1′-yl)-1-oxopropan-2-yl)carbamoyl)phenyl)carbamate] | 30 | 3.8
7 | COC(=O)Nc1ccc(C(=O)N[C@@H](CC2CCCCC2)C(=O)N2CCC[C@@]3(C2)OC(=O)Nc2ccc(Cl)cc23)cc1 [Example 72, methyl (4-(((S)-1-((R)-6-chloro-2-oxo-1,2-dihydrospiro[benzo[d][1,3]oxazine-4,3′-piperidin]-1′-yl)-3-cyclohexyl-1-oxopropan-2-yl)carbamoyl)phenyl)carbamate] | 3.58 | 17.7

Other lines, results leading:

Row | Ki [1] [nM] | Ki [2] [nM] | SMILES
8 | 70 | < 1.3 | COC(=O)Nc1ccc(C(=O)N[C@@H](Cc2ccc(OC3CCCC3)cc2)C(=O)N2CCC3(C2)OC(=O)Nc2ccc(Cl)cc23)cc1 (stereo partly drawn) [Example 44, methyl (4-(((2S)-1-(6-chloro-2-oxo-1,2-dihydrospiro[benzo[d][1,3]oxazine-4,3′-pyrrolidin]-1′-yl)-3-(4-(cyclopentyloxy)phenyl)-1-oxopropan-2-yl)carbamoyl)phenyl)carbamate]
9 | 5.55 | < 1.3 | COC(=O)Nc1ccc(C(=O)N[C@@H](Cc2ccc(C#N)cc2)C(=O)N2CCC[C@@]3(C2)OC(=O)Nc2ccc(Cl)cc23)cc1 [Example 45, methyl (4-(((S)-1-((R)-6-chloro-2-oxo-1,2-dihydrospiro[benzo[d][1,3]oxazine-4,3′-piperidin]-1′-yl)-3-(4-cyanophenyl)-1-oxopropan-2-yl)carbamoyl)phenyl)carbamate]
10 | 0.55 | < 1.3 | COC(=O)Nc1ccc(C(=O)N[C@@H](Cc2ccc(C(N)=O)cc2)C(=O)N2CCC[C@@]3(C2)OC(=O)Nc2ccc(Cl)cc23)cc1 [Example 47, methyl (4-(((S)-3-(4-carbamoylphenyl)-1-((R)-6-chloro-2-oxo-1,2-dihydrospiro[benzo[d][1,3]oxazine-4,3′-piperidin]-1′-yl)-1-oxopropan-2-yl)carbamoyl)phenyl)carbamate]
11 | 2.01 | 1.27 | COC(=O)Nc1ccc(C(=O)N[C@@H](Cc2ccc(NC(C)=O)cc2)C(=O)N2CCC[C@@]3(C2)OC(=O)Nc2ccc(Cl)cc23)cc1 [Example 48, methyl (4-(((S)-3-(4-acetamidophenyl)-1-((R)-6-chloro-2-oxo-1,2-dihydrospiro[benzo[d][1,3]oxazine-4,3′-piperidin]-1′-yl)-1-oxopropan-2-yl)carbamoyl)phenyl)carbamate]
12 | 33.7 | 227 | COC(=O)Nc1ccc(C(=O)N[C@@H](Cc2ccc3ccccc3c2)C(=O)N2CCC3(C2)OC(=O)Nc2ccc(Cl)cc23)cc1 (stereo partly drawn) [Example 50, methyl (4-(((2S)-1-(6-chloro-2-oxo-1,2-dihydrospiro[benzo[d][1,3]oxazine-4,3′-pyrrolidin]-1′-yl)-3-(naphthalen-2-yl)-1-oxopropan-2-yl)carbamoyl)phenyl)carbamate]
13 | 15.5 | 2.21 | COC(=O)Nc1ccc(C(=O)N[C@@H](Cc2cncn2C)C(=O)N2CCC[C@@]3(C2)OC(=O)Nc2ccc(Cl)cc23)cc1 [Example 53, methyl (4-(((S)-1-((R)-6-chloro-2-oxo-1,2-dihydrospiro[benzo[d][1,3]oxazine-4,3′-piperidin]-1′-yl)-3-(1-methyl-1H-imidazol-5-yl)-1-oxopropan-2-yl)carbamoyl)phenyl)carbamate]
14 | 4.9 | 1.43 | COC(=O)Nc1ccc(C(=O)N[C@@H](CCSC)C(=O)N2CCC[C@@]3(C2)OC(=O)Nc2ccc(Cl)cc23)cc1 [Example 57, methyl (4-(((S)-1-((R)-6-chloro-2-oxo-1,2-dihydrospiro[benzo[d][1,3]oxazine-4,3′-piperidin]-1′-yl)-4-(methylthio)-1-oxobutan-2-yl)carbamoyl)phenyl)carbamate]
15 | 4.04 | < 1.36 | COC(=O)Nc1ccc(C(=O)N[C@@H](Cc2cscn2)C(=O)N2CCC[C@@]3(C2)OC(=O)Nc2ccc(Cl)cc23)cc1 [Example 58, methyl (4-(((S)-1-((R)-6-chloro-2-oxo-1,2-dihydrospiro[benzo[d][1,3]oxazine-4,3′-piperidin]-1′-yl)-1-oxo-3-(thiazol-4-yl)propan-2-yl)carbamoyl)phenyl)carbamate]
16 | 48.9 | 3.31 | COC(=O)Nc1ccc(C(=O)N[C@@H](CC(C)C)C(=O)N2CCC[C@@]3(C2)OC(=O)Nc2ccc(Cl)cc23)cc1 [Example 60, methyl (4-(((S)-1-((R)-6-chloro-2-oxo-1,2-dihydrospiro[benzo[d][1,3]oxazine-4,3′-piperidin]-1′-yl)-4-methyl-1-oxopentan-2-yl)carbamoyl)phenyl)carbamate]
